In patent publication US20250098679A1, “HERBICIDAL PYRIDONE DERIVATIVES” (SYNGENTA CROP PROTECTION AG, priority 2021, published 2025):

How the values were obtained:
Format in all cases: in vivo
Conditions in all cases: evaluated after 13 days
Setaria faberi (SETFA) [1] = assay: Pre-emergence Test, Setaria faberi (SETFA)
[2] = tested on: Echinochloa crus-galli (ECHCG); assay: Pre-emergence Test, Echinochloa crus-galli (ECHCG)
Zea mays (ZEAMX) [3] = assay: Pre-emergence Test, Zea mays (ZEAMX)
[4] = tested on: Ipomoea hederacea (IPOHE); assay: Pre-emergence Test, Ipomoea hederacea (IPOHE)
[5] = tested on: Amaranthus palmeri (AMAPA); assay: Pre-emergence Test, Amaranthus palmeri (AMAPA)
[6] = tested on: Amaranthus retoflexus (AMARE); assay: Pre-emergence Test, Amaranthus retoflexus (AMARE)
Setaria faberi (SETFA) [7] = assay: Post-emergence Test, Setaria faberi (SETFA); parameters: key to percentage damage caused to the plant, SETFA (five-point scale): 5=81-100%, 4=61-80%, 3=41-60%, 2=21-40%, 1=0-20% damage
Outline: (§1)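 Sown pots in a glasshouse (24/16 °C day/night, 14 h light, 65% humidity) were sprayed with compound in acetone/water (50:50) with 0.5% Tween 20, at 1000 g/ha unless otherwise stated. Damage was assessed 13 days after spraying and scored 1–5 (5=81-100%, 1=0-20%).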

[8] = tested on: Echinochloa crus-galli (ECHCG); assay: Post-emergence Test, Echinochloa crus-galli (ECHCG); parameters: key to percentage damage caused to the plant, ECHCG (five-point scale): 5=81-100%, 4=61-80%, 3=41-60%, 2=21-40%, 1=0-20% damage
Outline: as §1

Zea mays (ZEAMX) [9] = assay: Post-emergence Test, Zea mays (ZEAMX); parameters: key to percentage damage caused to the plant, ZEAMX (five-point scale): 5=81-100%, 4=61-80%, 3=41-60%, 2=21-40%, 1=0-20% damage
Outline: as §1

[10] = tested on: Ipomoea hederacea (IPOHE); assay: Post-emergence Test, Ipomoea hederacea (IPOHE); parameters: key to percentage damage caused to the plant, IPOHE (five-point scale): 5=81-100%, 4=61-80%, 3=41-60%, 2=21-40%, 1=0-20% damage
Outline: as §1

[11] = tested on: Amaranthus palmeri (AMAPA); assay: Post-emergence Test, Amaranthus palmeri (AMAPA); parameters: key: 5=81-100%, 4=61-80%, 3=41-60%, 2=21-40%, 1=0-20% damage
Outline: as §1

[12] = tested on: Amaranthus retoflexus (AMARE); assay: Post-emergence Test, Amaranthus retoflexus (AMARE); parameters: key to percentage damage caused to the plant, AMARE (five-point scale): 5=81-100%, 4=61-80%, 3=41-60%, 2=21-40%, 1=0-20% damage
Outline: as §1

Compound	Pre-emergence Test SETFA, percentage damage caused to the plant (five-point scale) (Setaria faberi (SETFA) [1]; 250 g/Ha (*))	Pre-emergence Test SETFA, percentage damage caused to the plant (five-point scale) (Setaria faberi (SETFA) [1]; 1000 g/ha)	Pre-emergence Test ECHCG, percentage damage caused to the plant (five-point scale) ([2]; 250 g/Ha (*))	Pre-emergence Test ECHCG, percentage damage caused to the plant (five-point scale) ([2]; 1000 g/ha)	Pre-emergence Test ZEAMX, percentage damage caused to the plant (five-point scale) (Zea mays (ZEAMX) [3]; 1000 g/ha)	Pre-emergence Test IPOHE, percentage damage caused to the plant (five-point scale) ([4]; 1000 g/ha)	Pre-emergence Test AMAPA, percentage damage caused to the plant (five-point scale) ([5]; 1000 g/ha)	Pre-emergence Test AMARE, percentage damage caused to the plant (five-point scale) ([6]; 1000 g/ha)	percentage damage caused to the plant, SETFA (five-point scale) (Setaria faberi (SETFA) [7]; 250 g/Ha)	percentage damage caused to the plant, SETFA (five-point scale) (Setaria faberi (SETFA) [7]; 1000 g/ha)	percentage damage caused to the plant, ECHCG (five-point scale) ([8]; 250 g/Ha)	percentage damage caused to the plant, ECHCG (five-point scale) ([8]; 1000 g/ha)	percentage damage caused to the plant, ZEAMX (five-point scale) (Zea mays (ZEAMX) [9]; 250 g/Ha)	percentage damage caused to the plant, ZEAMX (five-point scale) (Zea mays (ZEAMX) [9]; 1000 g/ha)	percentage damage caused to the plant, IPOHE (five-point scale) ([10]; 250 g/Ha)	percentage damage caused to the plant, IPOHE (five-point scale) ([10]; 1000 g/ha)	percentage damage caused to the plant, AMAPA (five-point scale) ([11]; 250 g/Ha)	percentage damage caused to the plant, AMAPA (five-point scale) ([11]; 1000 g/ha)	percentage damage caused to the plant, AMARE (five-point scale) ([12]; 250 g/Ha)	percentage damage caused to the plant, AMARE (five-point scale) ([12]; 1000 g/ha)	further results
CCn1c(Cn2ccc(I)n2)cc(=O)c(C(=O)O)c1-c1ccc(Cl)c(Cl)c1 [Compound 78, 2-(3,4-dichlorophenyl)-1-ethyl-6-[(3-iodopyrazol-1-yl)methyl]-4-oxo-pyridine-3-carboxylic acid]	5 (5=81-100%)	5 (5=81-100%)	5 (5=81-100%)	5 (5=81-100%)	3 (3=41-60%)	4 (4=61-80%)	2 (2=21-40%)	2 (2=21-40%)	4 (4=61-80%)	4 (4=61-80%)	3 (3=41-60%)	4 (4=61-80%)	1 (1=0-20%)	3 (3=41-60%)	4 (4=61-80%)	4 (4=61-80%)	2 (2=21-40%)	2 (2=21-40%)	1 (1=0-20%)	3 (3=41-60%)	Pre-emergence Test ZEAMX, percentage damage caused to the plant (five-point scale) (Zea mays (ZEAMX) [3]; 250 g/Ha (*)): 4 (4=61-80%); Pre-emergence Test IPOHE, percentage damage caused to the plant (five-point scale) ([4]; 250 g/Ha (*)): 4 (4=61-80%); Pre-emergence Test AMAPA, percentage damage caused to the plant (five-point scale) ([5]; 250 g/Ha (*)): 3 (3=41-60%); Pre-emergence Test AMARE, percentage damage caused to the plant (five-point scale) ([6]; 250 g/Ha (*)): 2 (2=21-40%)
CCn1c(Cn2cc(Cl)cn2)cc(=O)c(C(=O)O)c1-c1ccc(Cl)c(Cl)c1 [Compound 14, 6-[(4-chloropyrazol-1-yl)methyl]-2-(3,4-dichlorophenyl)-1-ethyl-4-oxo-pyridine-3-carboxylic acid]	3 (3=41-60%)	5 (5=81-100%)	4 (4=61-80%)	5 (5=81-100%)	0	0	1 (1=0-20%)	1 (1=0-20%)	2 (2=21-40%)	4 (4=61-80%)	1 (1=0-20%)	4 (4=61-80%)	1 (1=0-20%)	1 (1=0-20%)	3 (3=41-60%)	3 (3=41-60%)	1 (1=0-20%)	3 (3=41-60%)	1 (1=0-20%)	1 (1=0-20%)	Pre-emergence Test ZEAMX, percentage damage caused to the plant (five-point scale) (Zea mays (ZEAMX) [3]; 250 g/Ha (*)): 0; Pre-emergence Test IPOHE, percentage damage caused to the plant (five-point scale) ([4]; 250 g/Ha (*)): 0; Pre-emergence Test AMAPA, percentage damage caused to the plant (five-point scale) ([5]; 250 g/Ha (*)): 0; Pre-emergence Test AMARE, percentage damage caused to the plant (five-point scale) ([6]; 250 g/Ha (*)): 0
CCOC(=O)c1c(-c2ccc(Cl)c(Cl)c2)n(CC)c(Cn2ccc(Cl)n2)cc1=O [Compound 3, ethyl 6-[(3-chloropyrazol-1-yl)methyl]-2-(3,4-dichlorophenyl)-1-ethyl-4-oxo-pyridine-3-carboxylate]	1 (1=0-20%)	5 (5=81-100%)	1 (1=0-20%)	4 (4=61-80%)	0	0	0	1 (1=0-20%)	2 (2=21-40%)	3 (3=41-60%)	1 (1=0-20%)	3 (3=41-60%)	0	2 (2=21-40%)	4 (4=61-80%)	2 (2=21-40%)	1 (1=0-20%)	2 (2=21-40%)	1 (1=0-20%)	1 (1=0-20%)	Pre-emergence Test ZEAMX, percentage damage caused to the plant (five-point scale) (Zea mays (ZEAMX) [3]; 250 g/Ha (*)): 0; Pre-emergence Test IPOHE, percentage damage caused to the plant (five-point scale) ([4]; 250 g/Ha (*)): 0; Pre-emergence Test AMAPA, percentage damage caused to the plant (five-point scale) ([5]; 250 g/Ha (*)): 0; Pre-emergence Test AMARE, percentage damage caused to the plant (five-point scale) ([6]; 250 g/Ha (*)): 0
CCn1c(Cn2cc3c(n2)COC3)cc(=O)c(C(=O)O)c1-c1ccc(Cl)c(Cl)c1 [Compound 92, 2-(3,4-dichlorophenyl)-6-(4,6-dihydrofuro[3,4-c]pyrazol-2-ylmethyl)-1-ethyl-4-oxo-pyridine-3-carboxylic acid]	3 (3=41-60%)	4 (4=61-80%)	3 (3=41-60%)	4 (4=61-80%)	0	2 (2=21-40%)	2 (2=21-40%)	0	3 (3=41-60%)	3 (3=41-60%)	3 (3=41-60%)	4 (4=61-80%)	2 (2=21-40%)	2 (2=21-40%)	3 (3=41-60%)	3 (3=41-60%)	2 (2=21-40%)	2 (2=21-40%)	2 (2=21-40%)	2 (2=21-40%)	Pre-emergence Test ZEAMX, percentage damage caused to the plant (five-point scale) (Zea mays (ZEAMX) [3]; 250 g/Ha (*)): 0; Pre-emergence Test IPOHE, percentage damage caused to the plant (five-point scale) ([4]; 250 g/Ha (*)): 3 (3=41-60%); Pre-emergence Test AMAPA, percentage damage caused to the plant (five-point scale) ([5]; 250 g/Ha (*)): 1 (1=0-20%); Pre-emergence Test AMARE, percentage damage caused to the plant (five-point scale) ([6]; 250 g/Ha (*)): 0
CCOCc1ccn(Cc2cc(=O)c(C(=O)O)c(-c3ccc(Cl)c(Cl)c3)n2CC)n1 [Compound 173, 2-(3,4-dichlorophenyl)-6-[[3-(ethoxymethyl)pyrazol-1-yl]methyl]-1-ethyl-4-oxo-pyridine-3-carboxylic acid]	–	4 (4=61-80%)	–	4 (4=61-80%)	0	3 (3=41-60%)	0	0	1 (1=0-20%)	4 (4=61-80%)	2 (2=21-40%)	4 (4=61-80%)	0	1 (1=0-20%)	1 (1=0-20%)	2 (2=21-40%)	0	1 (1=0-20%)	0	1 (1=0-20%)	–
